Measured values published in patent publication US20040054130A1, “Insulin potentiating peptides” (priority 2000, published 2004).
Square brackets hold non-standard residues; d marks the D form. Ends that are not written are not given here.

Experiments:
C57BL/6J ob/ob mice [1] = experiment: Plasma insulin radioimmunoassay after chronic administration; assay type: in vivo, mouse; conditions: after 14 days treatment
Experimental: (§1) Mice selected for this experiment were initially fasted for 4 hours, then anaesthetized with a single injection of sodium pentobarbitone (35 mg/kg). A blood sample was collected from each mouse by eye-bleed for the assessment of plasma glucose and insulin levels (day 0). Collected blood samples were stored at −20° C. until analysis was performed. A single Alzet mini-pump (#1002, Alzet, USA) containing either sterile saline (100 μl; n=14) or peptide 3 (20 μmol/kg dissolved in 100 μl saline; n=14) was inserted under the skin between the scapula of the mice. The incision was clamped and disinfected using iodine. The pumps were left for 14 days, and 5 body-weight, and food measurements were recorded during this period, at days 0, 4, 7, 10 and 14. Blood samples were collected on day 0 and 14 days post-saline (n=5) or peptide 3 (n=4) administration for plasma glucose analysis. The results reported below are expresses as mean +/− standard error. (a) Plasma insulin Plasma insulin levels were quantitatively determined in ob/ob mice, using an insulin radioimmunoassay kit (Linco Research Inc. USA) according to the manufacturer's instructions.

adipose tissue = experiment: Ex vivo glucose transport assay in adipose tissue of chronically treated mice; assay type: cell-based, mouse; conditions: after 14 days treatment
Experimental: (c) Glucose transport assay Glucose transport in adipose tissue extracted from saline-treated and chronically peptide 3-treated mice was analyzed by an ex vivo glucose uptake assay. Adipose tissues was harvested from mice which had received saline (n=5) or peptide 3 (n=4) in the IPGTT, and used for a glucose transport assay. Mice were sacrificed by a lethal injection of pentabarbitone to the heart. Epididymal fat from male mice or peritoneal fat from female mice was used. Adipose tissues were rinsed in saline and then sliced into even pieces for weight determination. Tissues were placed in flasks and incubated in 2 ml KRB buffer (pH 7.4) containing D-glucose (10 mM final concentration) with vigorous agitation at 37° C. for 2 h under an atmosphere of carbogen. All samples were then placed on ice to reduce glycolysis. Tissues were removed from flasks, and the remaining solutions were analyzed for glucose concentrations using a glucose analyzer. Glucose uptake by each tissue sample was calculated, and compared to tissue free buffer controls.

C57BL/6J ob/ob mice [2] = experiment: Chronic administration (14 day mini-pump): body weight, food intake, plasma glucose; assay type: in vivo, mouse
Experimental: as §1, with “The effects of chronic administration of peptide 3 in the C57Bl/6J ob/ob diabetic model were evaluated by measurements of a number of parameters, including body weight, food intake, plasma glucose levels, plasma insulin levels, intraperitoneal glucose tolerance test and glucose uptake by adipose tissue (ex vivo). Male and female C57BL/6J ob/ob mice aged 12-15 weeks old were used. Fasting blood glucose levels were determined for all mice 14 days prior to experimentation. Only mice with fasting blood glucose levels >7.0 mmol/l were used in the study. Mice” for “Mice”, “error.” for “error. (a) Plasma insulin Plasma insulin levels were quantitatively determined in ob/ob mice, using an insulin radioimmunoassay kit (Linco Research Inc. USA) according to the manufacturer's instructions.”

[3] = tested on: Zucker fatty (fa/fa) female rats; experiment: Acute oral administration, blood glucose; assay type: in vivo, rat
Experimental: Overnight fasted Zucker fatty (fa/fa) female rats were administered peptide 3 (ADD9903) by oral gavage at a concentration of 20 μmol/kg of body weight. Rats were then immediately anaesthetized with nembutal administered intraperitoneally in order to avoid variations arising due to activity of the rats. Blood samples were collected from the tail vein at time 0 min (immediately after oral gavage and before anaesthetic), 60 min, 120 min and 180 min, and analyzed for blood glucose by the glucose oxidation method using a YSI Model-2300 STAT glucose analyzer (Yellow Spring, Ohio). Six rats were analyzed for each of the control and treated groups.

[4] = tested on: Zucker (fa/fa) rat hemidiaphragm muscle; experiment: In vitro glycogen synthesis (glucose incorporation into glycogen) in hemidiaphragm muscle with exogenous insulin; assay type: cell-based
Experimental: In vitro insulin-potentiating effects of the synthetic peptide analogues were assessed by measuring the rates of exogenous glucose incorporation into glycogen in rat hemidiaphragms (Lim et al, 1992). Hemidiaphragms from overnight-fasted Zucker fatty(fa/fa) female rats were dissected, and divided into segments of approximate 35-50 mg each. Tissues from the same rat were used for all groups. The tissue was incubated in 2 ml of Krebs-Ringer bicarbonate (KRB) buffer (pH 7.4) containing [^14C]glucose (5.5 mM, final specific activity 0.05 mCi/mmol) under an atmosphere of 95% 02-5% CO2 at 37° C. for 1.5 hr. After incubation, tissues were removed, washed with cold buffer and blotted. Tissues were digested, the muscle glycogen was precipitated and the ^14C-radioactivity was counted in a Wallac 1410 liquid scintillation counter. The biological activity of peptide analogues was measured as the rate of mmol glucose incorporation into muscle glycogen/g tissue/hr.
The sensitivity of hemidiaphragm muscle tissue to insulin (0.1-100 mU/ml) on glycogen synthesis was first analyzed. The dose response curves for peptide analogues on the insulin-potentiating effect to glycogen synthesis were then measured using cumulative increasing concentrations (10^−3 10 μmol/ml) of peptides in the presence of insulin (1 mU/ml). The biological activity of each peptide analogue was measured as the rate of glucose incorporation into muscle glycogen (μmol/g tissue/hr), and represented by the mean±SEM from eight determinations.
To determine the insulin-potentiating effect of the peptide analogues, the rates of incorporation of glucose into muscle glycogen were measured. The rates of glycogen synthesis (μmol/g tissue/hr) were 0.52±0.05, 0.60±0.04, 1.27±0.06 and 1.52±0.07 inresponse to 0.33, 1, 3.33 and 10 mU/ml insulin respectively, as shown in FIG. 1.
The insulin-potentiating effect of the peptide analogues was then observed by studying their dose response. curves for glucose incorporation into glycogen in the presence of 1 mU/ml exogenous insulin. The effects of peptides 1, 3, 4, 6, 7, 8 and 10 were evident at doses higher than 0.01 μmol/ml, and continued to increase with increasing peptide concentration to 1 μmol/ml, as shown in FIGS. 2A and 2B.
The activity of each analogue was assessed by in vitro measurement of glycogen synthesis in muscle, as described above.

[5] = 20 μmol/kg by mini-pump, 14 days

## Arg-D-Ala-Phe-Phe-NH2 (R[dA]FF-NH2; N-terminus assumed; SMILES C[C@@H](NC(=O)[C@@H](N)CCCNC(=N)N)C(=O)N[C@@H](Cc1ccccc1)C(=O)N[C@@H](Cc1ccccc1)C(N)=O) [Peptide 3]
C57BL/6J ob/ob mice [1]
  plasma insulin level: 17.10 ± 5.99 ng/mL
Adipose tissue
  more glucose transported than adipose tissue from saline-treated mice: 38%
Adipose tissue; 10 mM D-glucose, 2 h, 37° C.
  glucose transport by adipose tissue: 1.67±0.18 nmol/mg tissue/h
C57BL/6J ob/ob mice [2]; [5]
  body weight gain vs saline-infused mice: no significant difference
  food intake vs saline-infused mice: no significant difference
C57BL/6J ob/ob mice [2]; continuous infusion 14 days (P<0.025)
  plasma glucose levels vs saline-infused control mice: significantly decreased
C57BL/6J ob/ob mice [2]; day 0 to day 14, 4 h fasted
  reduction in plasma glucose levels: 11.60 ± 3.63 mmol/L
[3]; at 120 min (P<0.005)
  decrease in blood glucose, oral compared to intraperitoneal administration: more profound decrease
[3]; oral gavage 20 μmol/kg (P<0.005)
  time of maximal decrease in blood glucose: 120 min
[3]; oral gavage 20 μmol/kg, significant from 60 min (P<0.05)
  blood glucose levels compared to control rats: significantly reduced
[4]; 10 μmol/ml peptide, 1 mU/ml insulin
  maximum stimulation of the rate of glycogen synthesis: up to 1.44±0.04 mol/g tissue/hr
[4]; 0.01-1 μmol/ml peptide (p<0.05), FIG. 2A
  in vitro glycogen synthesis: significantly increased
[4]; Table 6 (corrected), summary of Table 5
  Activity: active
